The text below walks through data of patent publication US20090275753A1, “ORTHO-SUBSTITUTED ANILINE DERIVATIVE AND ANTIOXIDANT DRUG” (NIPPON SODA CO., LTD., priority 2005, published 2009).

For series [1], the system named is lipid peroxidation in pig retina homogenate. As to the kind of experiment: Test for evaluating in vitro inhibition of lipid peroxidation (thiobarbituric acid method). As to conditions: 500 μM cysteine and 5 μM FeSO4, 30 minutes at 37° C., malondialdehyde, read-out: in vitro inhibition of lipid peroxidation (50% inhibition concentration IC50). The class given is biochemical. The protocol: (Test for Evaluating in vitro Inhibition of Lipid Peroxidation)
Evaluation of the in vitro inhibition of lipid peroxidation of the compound of the present invention was conducted in accordance with the method disclosed by Malvy et al. (Malvy, C., et al., Biochemical and Biophysical Research Communications, 1980, vol. 95, pp. 734 to 737).
As the organ, retinas that had been separated from pig eyeballs and subsequently stored at −80° C. were used. At the time of use, a 5-fold excess of a phosphate-buffered physiological saline solution (pH 7.4) was added, and the mixture was homogenized using a microhomogenizer (PHYSCOTRON, NITI-ON).
To this pig retina homogenate were added 0.15M KCl, the compound of the present invention, 500 μM cysteine and 5 μM FeSO4, and the mixture was then incubated for 30 minutes at 37° C.
The malondialdehyde generated upon decomposition of the lipid peroxide was measured using the thiobarbituric acid method. Based on the measured values, the 50% inhibition concentration (hereafter also referred to as “IC50”) of the compound of the present invention was determined.

For series [2], the system named is lipid peroxidation in brain homogenate. As to the kind of experiment: Test for evaluating tissue distribution: ex vivo inhibition of lipid peroxidation, brain. The class given is in vivo, rat. As to conditions: SD male rats, oral 30 mg/kg, one hour after administration, fasting. As for the experimental part:
(§1) (Test for Evaluating Tissue Distribution)
(§2) The tissue distribution properties of the compound of the present invention were evaluated by measuring the ex vivo inhibition of lipid peroxidation.
(§3) The compound of the present invention was dissolved in DMSO (final concentration: 20%), and then dissolved or suspended in a 0.1N hydrochloric acid physiological saline solution or a 1% polyethylene hardened castor oil (NIKOL HCO-60, manufactured by Nikko Chemicals Co., Ltd.)
This solution was administered orally, at a dose of 30 mg/kg, to either a group of three SD male rats (Japan SLC, 6 weeks old) that had been feed-deprived for 24 hours, or a group of three SD male rats (Japan SLC, 6 weeks old) that had not been feed-deprived. […] Using the method disclosed above in the section relating to the “test for evaluating in vitro inhibition of lipid peroxidation”, the brains, and the retinas separated from the eyeballs were homogenized, and the quantity of lipid peroxide within each tissue homogenate was then measured.
(§4) The inhibition rate of the compound of the present invention within each of the tissues was determined from the quantities of lipid peroxide generated in a control group (20% DMSO-0.1N hydrochloric acid physiological saline solution/1% polyethylene hardened castor oil) and in the group administered with the compound of the present invention.

Series [3] has as its system lipid peroxidation in retina homogenate. The series is described as follows: Test for evaluating tissue distribution: ex vivo inhibition of lipid peroxidation, retina. As to conditions: SD male rats, oral administration, one hour after administration, with feeding. Type of series: in vivo, rat. The protocol:
as §1, §2, §3
This solution was administered orally, at a dose of 30 mg/kg, to either a group of three SD male rats (Japan SLC, 6 weeks old) that had been feed-deprived for 24 hours, or a group of three SD male rats (Japan SLC, 6 weeks old) that had not been feed-deprived. One hour after administration and following anesthetization, the brains and eyeballs were removed. Using the method disclosed above in the section relating to the “test for evaluating in vitro inhibition of lipid peroxidation”, the brains, and the retinas separated from the eyeballs were homogenized, and the quantity of lipid peroxide within each tissue homogenate was then measured.
as §4

Series [4] is described as follows: Test for evaluating oral absorption: serum concentration by HPLC. The class given is in vivo, rat. As to conditions: SD male rats, oral 30 mg/kg, one hour after administration. As for the experimental part: (Test for Evaluating Oral Absorption)
The absorption of the compound of the present invention upon oral administration was evaluated in rats.
The compound of the present invention was dissolved in DMSO (final concentration: 20%), and then dissolved or suspended in a 0.1N hydrochloric acid physiological saline solution or a 1% polyethylene hardened castor oil (NIKOL HCO-60, manufactured by Nikko Chemicals Co., Ltd.).
This solution was administered orally, at a dose of 30 mg/kg, to a group of three SD male rats (Japan SLC, 6 weeks old). One hour after administration and following anesthetization, blood was collected from the abdominal vena cava in a plastic blood collection tube containing a serum separating agent. The blood sample was left to stand for approximately one hour, and following clotting, the serum was obtained by conducting a centrifugal separation at 3,000 rpm for a period of 10 minutes. […] The quantity of the compound of the present invention that existed within this filtered solution was measured by high-performance liquid chromatography (HPLC), under the conditions shown below. […]
The filtered solution for HPLC described in the previous paragraph was measured using the following representative conditions. […]

For the molecule `Cc1c(C)c2c(c(CCc3ccccc3)c1N)CC(C)(C)O2` [Compound 83, 2,2,6,7-tetramethyl-4-phenylethyl-5-aminodihydrobenzofuran], the IC50 in series [1] amounted to 260 nM. In series [2], the “ex vivo inhibition of lipid peroxidation inhibition rate (%) Brain” value is reported as 96 (fasting) %. Further, the “ex vivo inhibition of lipid peroxidation 50% inhibition quantity (ID50) Retina” value in series [3] is given as 67 (with feeding) mg/kg.

Regarding `Cc1c(C)c2c(c(CNc3ccc(-c4ccn[nH]4)cc3)c1N)CC(C)(C)O2` [Compound 29, 5-(4-(5-amino-2,2,6,7-tetramethyldihydrobenzofuran-4-ylmethylamino)phenyl)pyrazole], in series [4] (rat, serum), the concentration at 1 h turned out to be 2400 nM. Moreover, the “ex vivo inhibition of lipid peroxidation 50% inhibition quantity (ID50) Retina” value in series [3] is recorded as 60 (with feeding) mg/kg.

With `Cc1c(C)c2c(c(CN)c1N)CC(C)(C)O2` [Compound R-1, reference compound], the IC50 in series [1] was 300 nM. Moreover, the serum concentration entry in series [4] was “Below detection limit”. Further, the “ex vivo inhibition of lipid peroxidation 50% inhibition quantity (ID50) Retina” value in series [3] was 72 (with feeding) mg/kg.
